Experimental data from patent US9289446B2, “Myocardial perfusion imaging methods and compositions” (GILEAD SCIENCES, INC., priority 2002, dated 2016).

Assays:
[1] = system: blood flow in coronary, mesenteric, hind limb and renal vascular beds; assay: Example 8: vasodilator effects in different vascular beds (CBF, MBF, LBF, RBF) in awake dogs; format: in vivo; conditions: CVT-3146 2.5 μg/kg, ADO 250 μg/kg
Method: Example 8 employed a pharmaceutical composition consisting of an aqueous composition of 100 micrograms/mL CVT-3146 in 15% (w:v) propylene glycol and 100 mM phosphate buffer at pH 7 with 0.1% EDTA. The formulation was stored in type I glass vials at 5 mL per vial.
In this study the vasodilator effects of CVT-3146 were compared to those of ADO in different vascular beds in awake dogs. Dogs were chronically instrumented for measurements of the blood flow in coronary (CBF), mesenteric (MBF), hind limb (LBF), and renal (RBF) vascular beds, and hemodynamics.

[2] = system: heart rate (HR) and blood pressure (BP); assay: Example 5: heart rate, blood pressure and plasma catecholamines after i.v. bolus in awake rats (sympathoexcitation); format: in vivo; conditions: in the presence of hexamethonium 10 mg/kg, n=5
Method: The present study was carried out to determine whether CVT-3146, a selective A2A adenosine receptor agonist, causes sympathoexcitation.
CVT (0.31 μg/kg-50 μg/kg) was given as a rapid i.v. bolus to awake rats and heart rate (HR) and blood pressure (BP) were monitored. CVT-3146 caused an increase in BP and systolic pressure (SP) at lower doses while at higher doses there was a decrease in BP and SP. […] The increase in HR was evident at the lowest dose of CVT at which there was no appreciable decrease in BP. ZM241385 (30 μg/kg, N=5), an A2A receptor antagonist, attenuated the decrease in BP (CVT-3146: 14±3%, ZM: 1±1%) and the increase in HR (CVT: 27±3%, ZM: 18±3%) caused by CVT-3146. Pretreatment with metoprolol (MET, 1 mg/kg, n=5), a beta-blocker, attenuated the increase in HR (CVT: 27±3%, MET: 15±2%), but had no effect on hypotension caused by CVT-3146. In the presence of hexamethonium (HEX, 10 mg/kg, n=5), a ganglionic blocker, the tachycardia was prevented (CVT: 27±3%, HEX: −1±2%), but BP was further reduced (CVT: −11±2%, HEX: −49±5%).

With Nc1ncnc2c1ncn2[C@@H]1O[C@H](CO)[C@@H](O)[C@H]1O [adenosine, reference compound] the “duration for CBF above 2-fold of the baseline” value [1] was 16 ± 3 s.

In the case of C[N+](C)(C)CCCCCC[N+](C)(C)C [hexamethonium, reference compound], the “change in BP caused by CVT-3146” value [2] is reported as −49±5% and the “increase in HR (tachycardia) caused by CVT-3146” value [2] is reported as −1±2%.
